Test results reported in patent US8361995B2, “Drug comprising at least one gestagen” (Richter Gedeon Nyrt., priority 2007, dated 2013).

Experiments:
human melanocytes = assay: proliferation of human melanocytes cultured with hormones (cell counting, proliferation and apoptosis tests); format: cell-based; conditions: analysed after 9 days
Experimental: In a series of experiments, the influence of chlormadinone acetate (CMA) on the proliferation or pigment formation of human melanocytes was examined. To this end, human melanocytes were cultured in each case in the corresponding culture medium, which in each case contained different quantities of ethinyl oestradiol (EO), chlormadinone acetate (CMA) or a combination thereof. The individual compositions are summarised below in Table 1. [table] After 9 days the human melanocytes were analysed in vitro. Cell growth and cell death were determined by cell counting by means of Typan blue staining and by commercial cell proliferation and apoptosis tests. Pigment formation was determined both by measuring the melanin concentration of the cells and by measuring tyrosinase, the key enzyme in pigment formation.

tyrosinase = assay: pigment formation of human melanocytes: tyrosinase activity; format: cell-based; conditions: 1 nM as the sole hormone in the culture medium; analysed after 9 days
Experimental: In a series of experiments, the influence of chlormadinone acetate (CMA) on the proliferation or pigment formation of human melanocytes was examined.
To this end, human melanocytes were cultured in each case in the corresponding culture medium, which in each case contained different quantities of ethinyl oestradiol (EO), chlormadinone acetate (CMA) or a combination thereof. The individual compositions are summarised below in Table 1.
After 9 days the human melanocytes were analysed in vitro. Cell growth and cell death were determined by cell counting by means of Typan blue staining and by commercial cell proliferation and apoptosis tests. Pigment formation was determined both by measuring the melanin concentration of the cells and by measuring tyrosinase, the key enzyme in pigment formation.

SMILES | proliferation of human melanocytes (human melanocytes; 1 nM as the sole hormone in the culture medium) | tyrosinase activity of human melanocytes (tyrosinase) | reduction of the proliferation rate of human melanocytes (human melanocytes; 100 nM in the culture medium)
C#C[C@]1(O)CC[C@H]2[C@@H]3CCc4cc(O)ccc4[C@H]3CC[C@@]21C [ethinyl oestradiol] | increased | increased | –
CC(=O)O[C@]1(C(C)=O)CC[C@H]2[C@@H]3C=C(Cl)C4=CC(=O)CC[C@]4(C)[C@H]3CC[C@@]21C [chlormadinone acetate] | – | – | 50-70%
